Assay type in all cases: biochemical
Data set [1] deals with AF647-C6-dG6P and Alexa Fluor 546 dye-labeled primer-template duplex. The data set can be described thus: Stopped-flow measurement of tpol (nucleotide incorporation kinetics). Further details: unit not given here. The settings on record: tpol = 1/kpol; 7 μM AF647-C6-dG6P, 330 nM polymerase, 100 nM template/primer duplex, 2 mM MnCl2. As for the experimental part:
In this example, the t−1 and tpol values of a Phi-29 polymerase comprising the amino acid sequence of SEQ ID NO: 1 and a modified B103 polymerase comprising the amino acid sequence of SEQ ID NO: 8 (referred to as “mB103 in the table below) and further including amino acid substitutions at various positions were measured using a stopped-flow procedure. The stopped-flow techniques for measuring tpol (1/kpol) followed the techniques described by MP Roettger (2008 Biochemistry 47:9718-9727; M. Bakhtina 2009 Biochemistry 48:3197-320).
Stopped-Flow Measurements of tpol
The template sequence (SEQ ID NO: 44) further included an Alexa Fluor 546 dye moiety bonded to the 5′ position of the template.
The kinetics of nucleotide incorporation by each polymerase was measured in an Applied Photophysics SX20 stopped-flow spectrometer by monitoring changes in fluorescence from the dye-labeled primer-template duplex complexed to enzyme, following the mixing of the enzyme-DNA complex with dye-labeled nucleotides. These dye-labeled nucleotides comprise terminal-phosphate-labeled nucleotides having an alkyl linker with a functional amine group attached to the dye, and have the general structure shown in FIG. 11. This structure includes a sugar bonded to a hexaphosphate chain at the 5′ carbon position, and to a nucleotide base (denoted as “N”). The terminal phosphate group of the hexaphosphate is linked to a 6-carbon linker, and the other end of the 6-carbon linker is attached to a dye moiety (denoted as “dye”), typically through an amide bond. In this example, the particular dye-labeled nucleotide added was a labeled nucleotide hexaphosphate comprising a guanine base at the N (base) position and an Alexa Fluor 647 (AF647) at the dye position, and is referred to herein as “AF647-C6-dG6P”.
The primer and template were annealed to form a dye-labeled primer-template duplex using standard methods. This duplex was preincubated with polymerase. The mixture included 330 nM recombinant DNA polymerase, 100 nM template/primer duplex in buffer (“reaction buffer”) comprising 50 mM Tris-HCl, pH 7.5, 50 mM NaCl, 4 mM DTT, 0.2% BSA, and 2 mM MnCl2. The dye-labeled nucleotide AF647-C6-dG6P was then added to a final concentration of 7 μM, and the resulting fluorescence was monitored over time.
The averaged (5 traces) stopped-flow fluorescence traces (>1.5 ms) were fitted with a double exponential equation (1) to extrapolate the rates of the nucleotide binding and product release, Fluorescence=A1*e^−k1*t+A2*e^−kpol*t+C (equation 1) where A1 and A2 represent corresponding fluorescence amplitudes, C is an offset constant, and k1 and kpol are the observed rate constants for the fast and slow phases of the fluorescence transition, respectively.

The subject of data set [2] is AF647-C6-dG6P in [enzyme.DNA.nucleotide] ternary complex with dideoxy-primer/template duplex. The data set can be described thus: Stopped-flow measurement of t−1 (nucleotide dissociation from ternary complex). Further details: unit not given here. To be noted: t−1 = 1/k−1; ternary complex with 7 μM AF647-C6-dG6P chased with 50 μM non-labeled nucleotide, 2 mM MnCl2. The procedure: Stopped-Flow Measurements of t−1
The stopped-flow techniques for measuring t−1 ([…]) followed the techniques described by M. Bakhtina (2009 Biochemistry 48:3197-3208).
The rate of the nucleotide dissociation ([…]) from the ternary complex of [enzyme.DNA.nucleotide] was measured in an Applied Photophysics SX20 stopped-flow spectrometer by monitoring changes […] a duplex Alexa fluor 546 dye-labeled-DNA template following the mixing of the [enzyme.DNA.labeled nucleotide] ternary complex with 50 μM cognate non-labeled deoxynucleoside triphosphate in a buffer containing 50 mM Tris-HCl (pH 7.5), 50 mM NaCl, 4 mM DTT, 0.2% BSA, and 2 mM MnCl2.
The ternary complexes were prepared using: 330 nM polymerase, 100 nM template/primer duplex, and 7 μM terminal phosphate-labeled nucleotides (AF647-C6-dG6P).
The averaged stopped-flow fluorescence traces (>1.5 msec) were fitted with a single exponential equation (2) to extrapolate the rate of the nucleotide dissociation (k−1) from the [enzyme.DNA.nucleotide] ternary complex. Fluorescence=A1*e^−k−1*t+C (equation 2) where A1 represents the corresponding fluorescence amplitude, C is an offset constant, and k−1 and the observed rate constants for the fluorescence transition.

Data set [3] relates to hairpin-template, test nanoparticle. The data set can be described thus: Nanoparticle tolerance assay (primer extension with and without test nanoparticle). To be noted: 100 nM polymerase, 100 nM nanoparticle, 23° C. The procedure: The nanoparticle tolerance of exemplary modified and reference polymerases was measured and compared. The nucleotide incorporation activity of an exemplary modified polymerase comprising the amino acid sequence of SEQ ID NO: 19 and further comprising the amino acid substitution D175A was measured both in the absence and presence of equimolar amounts of a test nanoparticle. The results were compared to those of an exemplary reference Phi-29 polymerase comprising the amino acid sequence of SEQ ID NO: 20.
Primer extension activity was measured using an assay wherein free pyrophosphate released as a result of extension of a primer:template duplex is detected as a fluorescent product. […] The resulting fluorescence emissions were monitored as a function of time using a plate reader (Molecular Devices, SpectraMax M5). Reactions without nucleotides were also monitored as negative controls. Reactions were monitored for 20 minutes or until the samples reached saturation.
Exemplary results are depicted in FIG. 5, which provides a graph of relative fluorescence observed in each sample (RFU, arbitrary units, Y axis) against time (seconds, X axis). […] Primer extension activity was measured as the average slope of the curve obtained by plotting fluorescence (RFU) vs. time (seconds, X axis) between the zero time point and at 5 minutes. […]

Data set [4] relates to Invitrogen Low Mass ladder. Kind of data set: Exonuclease activity assay. To be noted: 2, 4 or 10 μg enzyme, 16 hours at 37° C., visual assessment of ladder bands. The procedure: An assay comparing the endogenous exonuclease activity of a reference polymerase, T7 DNA polymerase, with the exonuclease activity of a polymerase comprising the amino acid of SEQ ID NO: 7, was performed. Exonuclease activity was measured by incubating 2, 4 or 10 μg of each enzyme sample with 7.5 μL Invitrogen Low Mass ladder, (10068-013) in a 50 μL reaction containing 10 mM Tris, pH 7.5, 50 mM NaCl and 10 mM MgCl2 for 16 hours at 37° C. in an ABI 9700 PCR machine. The samples were resolved via electrophoresis on a 1.2% E-Gel (Life Technologies). The extent of exonuclease activity was estimated by visually assessing the disappearance of the bands of the Low Mass ladder, as compared to negative control reactions, to which water (“W”) or enzyme storage buffer (“SB”) was added instead of purified polymerase).

This note sets out measurements from patent US10093973B2, “Polymerase compositions and methods” (LIFE TECHNOLOGIES CORPORATION, priority 2009, dated 2018).

As to “mB103 + K509Y: modified B103 polymerase of SEQ ID NO: 8 with substitution K509Y”, in data set [1], the tpol is reported as 10. The “t−1” value in data set [2] is 20.

For “mB103 + H370R: modified B103 polymerase of SEQ ID NO: 8 with substitution H370R”, in data set [1], the tpol was determined as 17. Besides, the “t−1” value in data set [2] was 43.

“reference Phi-29 polymerase: reference Phi-29 polymerase of Example 5; SEQ ID NO: 20 or SEQ ID NO: 1 with N62D [reference compound]” returned a nanoparticle tolerance in data set [3] of 50%. In addition, in data set [3] (slope zero to 5 minutes), the “loss in primer extension activity in the presence of equimolar amounts of the test nanoparticle” value turned out to be 50%.

Regarding “T7 DNA polymerase: reference polymerase, positive control for exonuclease activity [reference compound]”, in data set [4], the exonuclease activity entry is “comparable levels of exonuclease activity”.

Take “SEQ ID NO: 7: B103 polymerase variant with substitutions F383L and D384N”: the exonuclease activity entry in data set [4] is “comparable levels of exonuclease activity”.

The substance “mB103 + H370Y: modified B103 polymerase of SEQ ID NO: 8 with substitution H370Y” displayed a tpol in data set [1] of 15. Moreover, the “t−1” value in data set [2] was determined as 12.

“mB103 + D507G: modified B103 polymerase of SEQ ID NO: 8 with substitution D507G”: the tpol in data set [1] was found to be 11. The “t−1” value in data set [2] is given as 13.

For “mB103 + E371R: modified B103 polymerase of SEQ ID NO: 8 with substitution E371R”, in data set [1], the tpol is 11. In data set [2], the “t−1” value amounted to 17.

“mB103 + E371Y: modified B103 polymerase of SEQ ID NO: 8 with substitution E371Y”: the tpol in data set [1] turned out to be 11. Besides, the “t−1” value in data set [2] is reported as 7.

As to “mB103 + D507H: modified B103 polymerase of SEQ ID NO: 8 with substitution D507H”, in data set [1], the tpol was 7. Moreover, the “t−1” value in data set [2] amounted to 16.
